Results on five molecules are retold here after patent US20030186370A1, “5ht3 receptors of nematodes, polynucleotide molecules encoding same, and antagonists thereof” (priority 2000, published 2003).

Test [1] deals with C. elegans. Put plainly: Effects of 5-HT receptor class-selective agonists and antagonists on C. elegans pharyngeal pumping and locomotion on agar. Format: in vivo. As for the experimental part:
For the experiments described below C. elegans of the Bristol N2 strain (Brenner, S. 1974. The genetics of Caenorhabditis elegans, Genetics, 77: 71-94) were cultured at room temperature on HMS174 E. coli bacteria (Campbell J. L. et al. 1978. Genetic recombination and complementation between bacteriophage T7 and cloned fragments of T77 DNA. Proc. Natl. Acad. Sci. USA. 75: 2276-2280) on NGM agar (Sulston, J. and Hodgkin, J. 1988, “Methods” in The nematode Caenorhabditis elegans. W. B. Wood pp 587-606. Cold Spring Harbor Laboratory Press, New York) unless otherwise described.
Studies were therefore conducted wherein selective 5-HT1, 5-HT2 and 5-HT3 agonists were applied at known concentrations to agar on which C. elegans was held in the absence of food and the effects on movement and pharyngeal pumping monitored over a period of 2-3 hours.
Studies were also conducted to investigate the ability of selective vertebrate 5-HT3 antagonists to inhibit the 5-HT-induced increase in pharyngeal pumping.

Test [2] deals with C. elegans. The experiment in a line: Dose-response of serotonin-stimulated pharyngeal pumping of C. elegans. Format: in vivo. The note with it: for IC50: in the presence of 0.325 mM serotonin (FIG. 2), read-out: IC50, inhibition of serotonin-stimulated pharyngeal pumping. The protocol: FIG. 1 provides dose-response curves for serotonin action on pharyngeal pumping. […] Any minor differences between the curves of FIGS. 1a and 1b are accounted for by the differences in experimental detail and the fact that in the microscopical assay, the rate of pumping is counted over a period of 1-3 minutes, whilst in the plate-based assays the fluorescence intensity represents the accumulation of ingested material over 60 minutes.
At this concentration of 5-HT, the IC50 for MDL72222 is approximately 30 μM, i.e. 10×lower than the EC50 for 5-HT.

Test [3] deals with C. elegans. The experiment in a line: Chronic exposure protocol: nematode growth and survival on NGM agar containing the compound. Type of test: in vivo. The following applies: for mortality at 5 µM / mortality at 10 µM / mortality at 20 µM / mortality at 40 µM / mortality at 81 µM / mortality at 162 µM / mortality at 325 µM: Caenorhabditis elegans. As for the experimental part: Because the pharyngeal pump is essential for nematode feeding and the maintenance of the nematode “hydrostatic skeleton” [Brownlee, D. J. A. et al. 1997, supra] and a previously established target organ for nematicides, an investigation was conducted to assess whether the 5-HT3-selective antagonists would function as nematicidal agents in a chronic exposure protocol.
C. elegans nematodes were cultured on the HMS/174 strain of E. coli [Campbell, J. L. et al. 1978. Genetic recombination and complementation between bacteriophage T7 and cloned fragments of T7 DNA. Proc. Natl. Acad. Sci. USA. 75: 2276-2280] on NGM agar [Sulston, J. and Hodgkin, J. 1988, supra] in the wells of six well tissue culture cluster, 2 ml agar per well. MDL72222 was incorporated into the agar at the specified concentrations using ≦65 μl of acetone as a carrier. A control well contained 65 μl of acetone only. Between five and 11 L1 stage C. elegans were transferred to each well and the wells were incubated at 22° C. for up to four weeks. All concentrations >10 μM MDL 72222 caused developmental delays. Concentrations of MDL 72222 down to 80 μM caused 40 % mortality within three days. […] The bacterial food therefore remained uneaten for prolonged periods.
Concentrations of MDL72222 down to 20 μM caused 90-100% mortality within 21 days and concentrations as low as 10 μM and 5 μM caused 50-100% mortality at 21 days. At the lowest concentrations of MDL72222, nematode death was delayed until after the bacterial food had been consumed. […] The experiment shown in Table 3 was repeated with essentially identical results.

In another test the test system is Helicoverpa armigera. The experiment in a line: Growth of neonate H. armigera on surface-contaminated artificial diet. Format: in vivo. The note with it: for Mean weight of larva (mg) at 7 days: 24 larvae; for activity at 100 µM / activity at 1000 µM: Helicoverpa armigera, 168 h, read-out: % of control weight.
A further test deals with Myzus persicae. Put plainly: Green Peach Aphid artificial diet sachet bioassay, growth and survival. Type of test: in vivo. The following applies: for Mean number of surviving aphids (out of 5) / Mean relative growth rate of survivors: after 5 days. The protocol:
The effects of MDL 72222 on Green Peach Aphid (Myzus persicae) was also tested. The bioassay involved testing compounds at 3 different concentrations (1 mM, 100 μM, 10 μM) in an artificial diet. Compounds that were not water-soluble were forced into solution using a non-toxic surfactant. For each compound, each concentration was tested in 10 replicate assays. In each replicate, 5 aphids were allowed to feed on the test solution in a Parafilm® sachet for a period of 5 days. Survivorship and aphid growth rate were compared among the test concentrations and a control containing only the artificial diet with surfactant.

In test [4] the test system is snail 5-HT3-like ion channel. The note with it: Green et al. 1996; read-out: IC50 on the snail 5-HT3-like ion channel / 5-HT gated conductance; cited from earlier work.
Setting [5] is: Table 3 experiment, 0.325 mM antagonist plus 0.325 mM serotonin.
Where [6] appears, read: Table 3 experiment, 0.325 mM, nothing else added.
[7] abbreviates: 72 h, read-out: % Mortality - 3 days.
Where [8] appears, read: 504 h, read-out: % Mortality - 21 days.
Where [9] appears, read: 0.1 mM by surface contamination of diet.
[10] abbreviates: 1.0 mM by surface contamination of diet.
Where [11] appears, read: Table 2 experiment, 0.325 mM (each), nothing else added.

Where two headings read alike, the source gives them in different places.

In the case of `CN1[C@@H]2CC[C@H]1C[C@@H](OC(=O)c1cc(Cl)cc(Cl)c1)C2` [MDL 72222], the “Pumping rate (min-1) mean ± s.d.” value in the test on C. elegans [1] (setting [5]) was found to be 2 ± 2 min⁻¹; with C. elegans [1] (setting [6]), 1 ± 1 min⁻¹. In addition, the IC50 is around 25 µM in the test with C. elegans [2] (Caenorhabditis elegans) and around 30 µM in the test with C. elegans [2]. Further, the “Time to consumption of all bacteria” value with C. elegans [3] (5 μM in agar) is recorded as 7 days; in the test on C. elegans [3] (10 μM in agar) it was 8 days; with C. elegans [3] (20 μM in agar) it was 9 days; in the test on C. elegans [3] (40 μM in agar) it was 10 days; in the test on C. elegans [3] (81 μM in agar) it was 16 days; in the test on C. elegans [3] (162 μM in agar), above 28 days. For the same molecule, in the test on C. elegans [3] (325 μM in agar), the “Time to consumption of all bacteria” value is listed as above 28 days. The mortality at 5 µM stood at 0% with C. elegans [3] (setting [7]) and 100% in the test with C. elegans [3] (setting [8]). The mortality at 10 µM in the test on C. elegans [3] (setting [7]) is 0%; with C. elegans [3] (setting [8]) it was above 50%. The mortality at 20 µM with C. elegans [3] (setting [7]) turned out to be 0%; in the test on C. elegans [3] (setting [8]), 100%. For the same molecule, the mortality at 40 µM was 0% in the test on C. elegans [3] (setting [7]) and above 90% in the test on C. elegans [3] (setting [8]). Besides, the mortality at 81 µM in the test on C. elegans [3] (setting [7]) was 42%; in the test on C. elegans [3] (setting [8]), above 90%. Also, the mortality at 162 µM with C. elegans [3] (setting [7]) is 64%; in the test on C. elegans [3] (setting [8]), above 90%. For the same molecule, the mortality at 325 µM is 55% in the test on C. elegans [3] (setting [7]) and 100% in the test on C. elegans [3] (setting [8]). The “Concentrations that caused developmental delays” value in the test with C. elegans [3] (L1 stage seeded, 22° C.) is above 10 µM. Also, the “Mean weight of larva (mg) at 7 days” value stood at 51 mg with Helicoverpa armigera (setting [9]) and 54 mg in the test on Helicoverpa armigera (setting [10]). In the test with Helicoverpa armigera (0.1 mM by surface contamination of diet, 7 days), the activity at 100 µM amounted to 70%. Besides, the activity at 1000 µM with Helicoverpa armigera (1.0 mM by surface contamination of diet, 7 days) worked out at 75%. In addition, the “Mean number of surviving aphids (out of 5)” value in the test on Myzus persicae (0.01 mM in artificial diet) came out at 4.6; in the test on Myzus persicae (0.1 mM in artificial diet), 3.4; with Myzus persicae (1 mM in artificial diet), 0.9. The figures for the “Mean relative growth rate of survivors” value in the test on Myzus persicae (0.01 mM in artificial diet), in the test on Myzus persicae (0.1 mM in artificial diet) and in the test on Myzus persicae (1 mM in artificial diet) were 0.0339, 0.0200 and 0.0383, respectively.

As to `Cc1nccn1CC1CCc2c(c3ccccc3n2C)C1=O` (stereo not shown) [ondansetron], in the test with C. elegans [1] (setting [5]), the Effect on locomotion entry is “Nematodes moved normally” and the “Pumping rate (min-1) mean ± s.d.” value came out at 32 ± 29 min⁻¹. In the test on C. elegans [1] (setting [6]), the Effect on locomotion result is “Nematodes moved normally” and the “Pumping rate (min-1) mean ± s.d.” value stood at 0 ± 0 min⁻¹. In addition, the “Effect on growth and development of neonate H. armigera” value in the test with Helicoverpa armigera (artificial diet, surface contamination) is on record as “no discernible effect”. In addition, the “Effect on M. persicae” value with Myzus persicae (1 mM, 100 μM, 10 μM in artificial diet, 5 days) is listed as “no discernible effect”. In addition, the IC50 in test [4] is 10 µM.

With `Cl.Clc1cccc(N2CCNCC2)c1` [m-CPP hydrochloride], the Effect on locomotion result with C. elegans [1] (agonist 1 mM (each, if combined)) is listed as “Locomotion inhibited”; in the test on C. elegans [1] (agonist 6 mM (each, if combined)), “Locomotion inhibited”. Further, the “Pumping rate (min-1) mean ± s.d.” value in the test on C. elegans [1] (agonist 1 mM (each, if combined) in agar, absence of food, 2-3 hours) was 0 min⁻¹; in the test with C. elegans [1] (agonist 6 mM (each, if combined) in agar, absence of food, 2-3 hours), 0 min⁻¹.

Take `NCCc1c[nH]c2ccc(O)cc12` [serotonin, 5-Hydroxytryptamine]: in the test on C. elegans [1] (setting [11]), the Effect on locomotion entry is recorded as “Nematodes moved normally” and the “Pumping rate (min-1) mean ± s.d.” value is 129 ± 6 min⁻¹. In the test on C. elegans [1] (setting [6]), the Effect on locomotion result is recorded as “Nematodes moved normally” and the “Pumping rate (min-1) mean ± s.d.” value came to 54 ± 45 min⁻¹. The EC50 in the test with C. elegans [2] (Caenorhabditis elegans, read-out: EC50 of 5-HT on pharyngeal pumping) is around 325 µM. The “Mean weight of larva (mg) at 7 days” value in the test with Helicoverpa armigera (setting [9]) was found to be 85 mg. The “Mean weight of larva (mg) at 7 days” value in the test with Helicoverpa armigera (setting [10]) turned out to be 85 mg. Besides, in the test on Helicoverpa armigera, the activity at 100 µM was 116% and the activity at 1000 µM stood at 116%.

As to `Cc1[nH]c2ccc(O)cc2c1CCN.Cl` [2-methyl-5-hydroxytryptamine hydrochloride], in the test with C. elegans [1] (agonist 3 mM), the Effect on locomotion result is listed as “Locomotion normal,”. Moreover, the “Pumping rate (min-1) mean ± s.d.” value with C. elegans [1] (agonist 3 mM in agar, absence of food, 2-3 hours) was determined as 130 ± 27 min⁻¹.
